# US20250221413A1, “Use and Preparation Method of Sulfoxamyl, and Oxidation System” (priority 2023, published 2025)
# “And” between values parts separate entries of the source, which are not always exact repeats. Equal values may be shown once. Read-outs that look alike come from different tables or passages of the source.
# What was measured:
# Meloidogyne incognita = assay: Indoor toxicity test against Meloidogyne incognita second-instar larvae (J2)
# Method: Materials: the tested nematodes were collected from three different areas, namely cucumber crops in Dawenkou Town, Tai'an City, Shandong Province, and were all identified as southern root-knot nematodes (Meloidogyne incognita). The diseased roots were washed, cut into small sections of 0.5 cm to 1 cm, rinsed in 1% NaClO solution for about 30 s to 60 s, and rinsed with 200-mesh and 500-mesh sieves to collect nematode eggs for later use. The collected eggs were incubated at 25° C. using the Bayman funnel method and the second-instar larvae were collected 1 time per 24 h to ensure that the second-instar larvae selected each time were fresh and of consistent vitality.
# The agent was 98% sulfoxamyl technical, and the comparison agents were 96% oxamyl technical and 87% fosthiazate technical.
# The preparation for the agent was in accordance with the provisions for preparation of the liquid medicine in the Agricultural Industry Standard of the People's Republic of China NYT 1833.1-2009 “Guideline for laboratory bioassay of pesticides”, as shown in Table 6.
# Methods: according to the experimental plan, the test agent was diluted to different mass concentrations, and 0.5 mL of the agent solution and 0.5 mL of the nematode solution (containing about 100 nematodes) were added into a 24-well cell culture plate. The treatment with each concentration of the agent was repeated 4 times, and auxiliary agent control and blank control were also conducted. […]
# SD rats = assay: Acute oral toxicity test, single oral fixed-dose procedure; type: in vivo; conditions: single oral dose 500 mg/kg
# Method: Materials: the test agent 98% sulfoxamyl technical, batch number 20230708-1, was provided by Ningxia Hugerise Chemical Co., Ltd. Experimental animals: SPF-grade SD rats, half male and half female, weighing 180 g to 220 g, were provided by Jinan Pengyue Experimental Animal Breeding Co., Ltd., license number SCXK (Lu) 20190003. Rearing environment: the rats were housed in an SPF-grade animal room with free access to water and food, a temperature of 20° C. to 25° C., a humidity of 40% to 60%, and a 12 h/12 h light cycle. Feed: conventional pellet feed was provided by Jinan Pengyue Experimental Animal Breeding Co., Ltd.
# The test was conducted in accordance with “Toxicological test methods of pesticides for registration, GB15670.5-2017”, “Acute toxicity test, GB15193.3-2003” and relevant acute toxicity research data.
# Methods: a single oral fixed-dose procedure was conducted to preliminarily explore the toxic dose range of sulfoxamyl. LD50 and confidence limits were calculated by using the probability unit method (Bliss method). SD rats were randomly divided into 5 groups, 10 rats in each group, half of them were male and half were female. […] The common ratio value among each dose group was 0.75. After a single oral administration, the mortality rate of the experimental animals was recorded within 24 h and 14 days after administration, while the general condition of the animals was observed, and the food intake and body weight changes were recorded.
# [1] = system: Meloidogyne incognita eggs; assay: Inhibitory effect on hatching of Meloidogyne incognita eggs; type: in vivo; conditions: 7 d
# [2] = Meloidogyne incognita, 24 h, 50 mg/L
# [3] = Meloidogyne incognita, 24 h, 100 mg/L
# [4] = Meloidogyne incognita, 24 h, read-out: Corrected mortality, 50 mg/L, 24 h
# [5] = Meloidogyne incognita, 24 h, read-out: Corrected mortality, 100 mg/L, 24 h
# [6] = Meloidogyne incognita, 168 h, egg hatching
smiles,measurement,setting,value
"CCOP(=O)(SC(C)CC)N1CCSC1=O (stereo not shown) [Fosthiazate, fosthiazate]",Corrected mortality,"Meloidogyne incognita; 3.125 mg/L, 24 h",17.51% and 18.63% and 12.52%
same,Death count,"Meloidogyne incognita; 3.125 mg/L, 24 h",24 and 38 and 26 and 20
same,Mortality,"Meloidogyne incognita; 3.125 mg/L, 24 h",23.90% and 25.74% and 16.13%
same,Corrected mortality,"Meloidogyne incognita; 6.25 mg/L, 24 h",33.03% and 29.63% and 42.23%
same,Death count,"Meloidogyne incognita; 6.25 mg/L, 24 h",36 and 60 and 39 and 58
same,Mortality,"Meloidogyne incognita; 6.25 mg/L, 24 h",38.22% and 35.78% and 44.62%
same,Corrected mortality,"Meloidogyne incognita; 12.5 mg/L, 24 h",57.70% and 46.22% and 41.17% and 62.23%
same,Death count,"Meloidogyne incognita; 12.5 mg/L, 24 h",80 and 64 and 69 and 74
same,Mortality,"Meloidogyne incognita; 12.5 mg/L, 24 h",50.39% and 46.31% and 63.79%
same,Corrected mortality,"Meloidogyne incognita; 25 mg/L, 24 h",74.92% and 67.46% and 64.47%
same,Death count,"Meloidogyne incognita; 25 mg/L, 24 h",68 and 93 and 116 and 91
same,Mortality,"Meloidogyne incognita; 25 mg/L, 24 h",76.86% and 70.30% and 65.94%
same,Corrected mortality,"Meloidogyne incognita; 50 mg/L, 24 h",79.38% and 77.71% and 74.49%
same,Death count,"Meloidogyne incognita; 50 mg/L, 24 h",84 and 132 and 94 and 105
same,Mortality,"Meloidogyne incognita; 50 mg/L, 24 h",80.98% and 79.66% and 75.54%
same,Corrected mortality,"Meloidogyne incognita; 100 mg/L, 24 h",75.25% and 86.39% and 79.87%
same,Death count,"Meloidogyne incognita; 100 mg/L, 24 h",117 and 98 and 141 and 92
same,Mortality,"Meloidogyne incognita; 100 mg/L, 24 h",77.17% and 87.58% and 80.70%
same,LC90,Meloidogyne incognita; 24 h,146.50 mg/L
same,LC50,"Meloidogyne incognita; Meloidogyne incognita, 24 h",14.6 µg/mL
same,mortality at 3.125 µg/mL,"Meloidogyne incognita; Meloidogyne incognita, 24 h, 3.125 mg/L",16.6%
same,mortality at 6.25 µg/mL,"Meloidogyne incognita; Meloidogyne incognita, 24 h, 6.25 mg/L",28.6%
same,mortality at 12.5 µg/mL,"Meloidogyne incognita; Meloidogyne incognita, 24 h, 12.5 mg/L",59.7%
same,mortality at 25 µg/mL,"Meloidogyne incognita; Meloidogyne incognita, 24 h, 25 mg/L",64.2%
same,mortality at 50 µg/mL,Meloidogyne incognita; [2],82.3%
same,mortality at 100 µg/mL,Meloidogyne incognita; [3],80.1%
same,mortality at 3.125 µg/mL,"Meloidogyne incognita; Meloidogyne incognita, 24 h, read-out: Corrected mortality, 3.125 mg/L, 24 h",12.4%
same,mortality at 6.25 µg/mL,"Meloidogyne incognita; Meloidogyne incognita, 24 h, read-out: Corrected mortality, 6.25 mg/L, 24 h",25%
same,mortality at 25 µg/mL,"Meloidogyne incognita; Meloidogyne incognita, 24 h, read-out: Corrected mortality, 25 mg/L, 24 h",62.4%
same,mortality at 50 µg/mL,Meloidogyne incognita; [4],81.5%
same,mortality at 100 µg/mL,Meloidogyne incognita; [5],79.2%
"CNC(=O)O/N=C(\SC)C(=O)N(C)C [Oxamyl, N,N-dimethyl-2-[[[(methylamino)carbonyl]oxy]imino]-2-(methylthio)acetamide]",Death count,SD rats,6/6
same,Main clinical symptom,SD rats,All rats died within 5 min
same,Corrected mortality,"Meloidogyne incognita; 25 mg/L, 24 h",6.89% and 2.76% and 3.40% and 3.65%
same,Mortality,"Meloidogyne incognita; 25 mg/L, 24 h",8.04% and 3.96% and 4.59% and 4.84%
same,Corrected mortality,"Meloidogyne incognita; 25 mg/L, 48 h",12.13% and 16.63% and 6.92% and 6.73%
same,Death count,"Meloidogyne incognita; 25 mg/L, 48 h",15 and 18 and 9 and 10
same,Mortality,"Meloidogyne incognita; 25 mg/L, 48 h",13.39% and 17.82% and 8.26% and 8.06%
same,Corrected mortality,"Meloidogyne incognita; 25 mg/L, 72 h",23.34% and 15.88% and 15.37%
same,Death count,"Meloidogyne incognita; 25 mg/L, 72 h",20 and 25 and 19 and 21
same,Mortality,"Meloidogyne incognita; 25 mg/L, 72 h",24.75% and 17.43% and 16.94%
same,Corrected mortality,"Meloidogyne incognita; 50 mg/L, 24 h",29.73% and 26.88% and 16.90%
same,Mortality,"Meloidogyne incognita; 50 mg/L, 24 h",30.60% and 27.78% and 17.92%
same,Corrected mortality,"Meloidogyne incognita; 50 mg/L, 48 h",44.73% and 39.88% and 31.09%
same,Mortality,"Meloidogyne incognita; 50 mg/L, 48 h",45.52% and 40.74% and 32.08%
same,Corrected mortality,"Meloidogyne incognita; 50 mg/L, 72 h",55.90% and 59.44% and 45.22%
same,Death count,"Meloidogyne incognita; 50 mg/L, 72 h",41 and 76 and 65 and 49
same,Mortality,"Meloidogyne incognita; 50 mg/L, 72 h",56.72% and 60.19% and 46.23%
same,Corrected mortality,"Meloidogyne incognita; 100 mg/L, 24 h",48.91% and 58.66% and 60.23%
same,Death count,"Meloidogyne incognita; 100 mg/L, 24 h",74 and 54 and 71 and 68
same,Mortality,"Meloidogyne incognita; 100 mg/L, 24 h",49.54% and 59.17% and 60.71%
same,Corrected mortality,"Meloidogyne incognita; 100 mg/L, 48 h",76.73% and 76.33% and 80.98%
same,Death count,"Meloidogyne incognita; 100 mg/L, 48 h",90 and 84 and 92 and 91
same,Mortality,"Meloidogyne incognita; 100 mg/L, 48 h",77.06% and 76.67% and 81.25%
same,Corrected mortality,"Meloidogyne incognita; 100 mg/L, 72 h",75.93% and 81.31% and 83.87% and 97.27%
same,Death count,"Meloidogyne incognita; 100 mg/L, 72 h",97 and 89 and 101 and 109
same,Mortality,"Meloidogyne incognita; 100 mg/L, 72 h",76.38% and 81.65% and 84.17% and 97.32%
same,Corrected mortality,"Meloidogyne incognita; 200 mg/L, 24 h",69.90% and 86.37% and 84.57% and 94.67%
same,Death count,"Meloidogyne incognita; 200 mg/L, 24 h",78 and 90 and 89
same,Mortality,"Meloidogyne incognita; 200 mg/L, 24 h",70.27% and 86.54% and 84.76% and 94.74%
same,Corrected mortality,"Meloidogyne incognita; 200 mg/L, 48 h",90.24% and 92.27% and 97.86%
same,Death count,"Meloidogyne incognita; 200 mg/L, 48 h",104 and 94 and 97 and 93
same,Mortality,"Meloidogyne incognita; 200 mg/L, 48 h",90.38% and 92.38% and 97.89%
same,Corrected mortality,"Meloidogyne incognita; 200 mg/L, 72 h",94.12% and 94.18% and 98.93%
same,Death count,"Meloidogyne incognita; 200 mg/L, 72 h",108 and 98 and 99 and 94
same,Mortality,"Meloidogyne incognita; 200 mg/L, 72 h",94.23% and 94.29% and 98.95%
same,Death count,"Meloidogyne incognita; 400 mg/L, 24 h",99 and 101 and 117 and 112
same,Death count,"Meloidogyne incognita; 400 mg/L, 48 h",101 and 108 and 119 and 117
same,Death count,"Meloidogyne incognita; 400 mg/L, 72 h",103 and 110 and 120 and 118
same,LC90,Meloidogyne incognita; 24 h,273.89 mg/L
same,LC90,Meloidogyne incognita; 48 h,181.92 mg/L
same,LC90,Meloidogyne incognita; 72 h,131.82 mg/L
same,LC50,"Meloidogyne incognita; Meloidogyne incognita, 24 h",94.8 µg/mL
same,mortality at 50 µg/mL,Meloidogyne incognita; [2],23.8%
same,mortality at 100 µg/mL,Meloidogyne incognita; [3],58.3%
same,mortality at 400 µg/mL,"Meloidogyne incognita; Meloidogyne incognita, 24 h, 400 mg/L",96.1%
same,mortality at 50 µg/mL,Meloidogyne incognita; [4],22.8%
same,mortality at 100 µg/mL,Meloidogyne incognita; [5],57.8%
same,mortality at 400 µg/mL,"Meloidogyne incognita; Meloidogyne incognita, 24 h, read-out: Corrected mortality, 400 mg/L, 24 h",96.1%
same,LC50,"Meloidogyne incognita; Meloidogyne incognita, 48 h",64.4 µg/mL
same,mortality at 50 µg/mL,"Meloidogyne incognita; Meloidogyne incognita, 48 h, 50 mg/L",29.7%
same,mortality at 100 µg/mL,"Meloidogyne incognita; Meloidogyne incognita, 48 h, 100 mg/L",70.9%
same,mortality at 200 µg/mL,"Meloidogyne incognita; Meloidogyne incognita, 48 h, 200 mg/L",93.7%
same,mortality at 400 µg/mL,"Meloidogyne incognita; Meloidogyne incognita, 48 h, 400 mg/L",98.1%
same,mortality at 50 µg/mL,"Meloidogyne incognita; Meloidogyne incognita, 48 h, read-out: Corrected mortality, 50 mg/L, 48 h",28.7%
same,mortality at 100 µg/mL,"Meloidogyne incognita; Meloidogyne incognita, 48 h, read-out: Corrected mortality, 100 mg/L, 48 h",70.4%
same,mortality at 200 µg/mL,"Meloidogyne incognita; Meloidogyne incognita, 48 h, read-out: Corrected mortality, 200 mg/L, 48 h",93.6%
same,mortality at 400 µg/mL,"Meloidogyne incognita; Meloidogyne incognita, 48 h, read-out: Corrected mortality, 400 mg/L, 48 h",98%
same,LC50,"Meloidogyne incognita; Meloidogyne incognita, 72 h",49.6 µg/mL
same,mortality at 25 µg/mL,"Meloidogyne incognita; Meloidogyne incognita, 72 h, 25 mg/L",17.9%
same,mortality at 50 µg/mL,"Meloidogyne incognita; Meloidogyne incognita, 72 h, 50 mg/L",40.6%
same,mortality at 200 µg/mL,"Meloidogyne incognita; Meloidogyne incognita, 72 h, 200 mg/L",97.3%
same,mortality at 400 µg/mL,"Meloidogyne incognita; Meloidogyne incognita, 72 h, 400 mg/L",100%
same,mortality at 25 µg/mL,"Meloidogyne incognita; Meloidogyne incognita, 72 h, read-out: Corrected mortality, 25 mg/L, 72 h",16.3%
same,mortality at 50 µg/mL,"Meloidogyne incognita; Meloidogyne incognita, 72 h, read-out: Corrected mortality, 50 mg/L, 72 h",39.5%
same,mortality at 200 µg/mL,"Meloidogyne incognita; Meloidogyne incognita, 72 h, read-out: Corrected mortality, 200 mg/L, 72 h",97.2%
same,mortality at 400 µg/mL,"Meloidogyne incognita; Meloidogyne incognita, 72 h, read-out: Corrected mortality, 400 mg/L, 72 h",100%
same,Number of hatched eggs/7 d,[1]; 25 mg/L,81 and 92 and 90
same,Number of unhatched eggs/7 d,[1]; 25 mg/L,47 and 36 and 42
same,Number of hatched eggs/7 d,[1]; 50 mg/L,83 and 86 and 78
same,Number of unhatched eggs/7 d,[1]; 50 mg/L,53 and 52
same,Number of hatched eggs/7 d,[1]; 100 mg/L,62 and 72 and 71
same,Number of unhatched eggs/7 d,[1]; 100 mg/L,68 and 60 and 58
same,Number of hatched eggs/7 d,[1]; 200 mg/L,26 and 20 and 23
same,Number of unhatched eggs/7 d,[1]; 200 mg/L,97 and 101 and 103
same,Number of hatched eggs/7 d,[1]; 400 mg/L,12 and 15 and 11
same,Number of unhatched eggs/7 d,[1]; 400 mg/L,113 and 117 and 121
same,IC50,[1]; [6],91.6 µg/mL
same,IC90,[1]; [6],480 µg/mL
